Substitutions are numbered along the chain they refer to.
Legend:
F666A mutant TRPV3 = biological target: T1, F666A mutant TRPV3 (Mus musculus, UniProt Q8K424, F666A); assay: Fura-2 ratiometric Ca2+ uptake, inhibition of 2-APB-evoked response; assay type: cell-based; details: n = 3
T1 construct: expressed in transfected cells; host or cells: HEK 293 S GnTI- cells (baculovirus transduction)
T1 sequence (Q8K424 1-791 F666A): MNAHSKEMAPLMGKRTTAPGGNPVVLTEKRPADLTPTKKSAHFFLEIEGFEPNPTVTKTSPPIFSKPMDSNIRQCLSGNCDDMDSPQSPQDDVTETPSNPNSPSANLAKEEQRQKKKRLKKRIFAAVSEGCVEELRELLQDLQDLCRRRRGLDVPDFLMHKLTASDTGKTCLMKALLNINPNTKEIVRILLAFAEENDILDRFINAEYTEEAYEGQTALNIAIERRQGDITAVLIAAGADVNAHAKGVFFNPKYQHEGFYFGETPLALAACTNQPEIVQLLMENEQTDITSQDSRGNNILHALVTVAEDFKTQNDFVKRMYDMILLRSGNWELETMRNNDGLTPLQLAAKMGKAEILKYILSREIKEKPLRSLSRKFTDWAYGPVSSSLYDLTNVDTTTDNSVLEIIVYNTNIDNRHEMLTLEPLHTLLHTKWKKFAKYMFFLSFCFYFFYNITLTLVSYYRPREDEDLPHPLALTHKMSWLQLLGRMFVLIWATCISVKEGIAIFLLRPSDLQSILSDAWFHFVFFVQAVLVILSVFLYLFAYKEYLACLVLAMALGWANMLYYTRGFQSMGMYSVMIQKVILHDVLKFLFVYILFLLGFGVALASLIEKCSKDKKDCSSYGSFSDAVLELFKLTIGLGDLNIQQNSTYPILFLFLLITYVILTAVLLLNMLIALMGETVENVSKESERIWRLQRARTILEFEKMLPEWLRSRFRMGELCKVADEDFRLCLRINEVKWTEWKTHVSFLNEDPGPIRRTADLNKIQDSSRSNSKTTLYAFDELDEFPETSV
Description: (§1) GFP-free C-terminally strep-tagged wild-type TRPV3, TRPV3-Y564A, TRPV3-Y594A, TRPV3-F633A, TRPV3-I663W, and TRPV3-F666A were expressed in HEK 293 S GnTI^− cells as previously described[41],[42],[53]. In short, 48 h after transduction, 1-ml aliquots of cell suspension were collected by centrifugation at 550 g for 5 min using an Eppendorf 5424 centrifuge. The cells were resuspended in the pre-warmed modified HEPES-buffered saline (HBS) containing 118 mM NaCl, 4.8 mM KCl, 1 mM MgCl2, 5 mM D-glucose, and 10 mM HEPES pH 7.4 and 5 μg/ml Fura-2 AM (Thermo Fisher Scientific) and incubated for 45 min at 37 °C. The Fura-2-loaded cells were then centrifuged for 5 min at 550 g, resuspended in the pre-warmed, modified HBS and incubated again for 30 min at 37 °C in the dark. The cells were subsequently pelleted and washed twice in the modified HBS. The washed cell pellets were kept on ice in the dark before taking an aliquot for fluorescence measurements. […] We used the lower CaCl2 concentration than before[42],[28] (2.5 mM) to minimize non-specific effects, which often appeared as a drift in the Fura-2 signal at high Ca^2+ concentration, presumably due to cell death as a result of calcium overload. Fluorescence measurements were conducted using a QuantaMaster 40 spectrofluorometer (Photon Technology International) at room temperature in a quartz cuvette under constant stirring. After 60 s since the beginning, the recording was paused and 2-APB was added. After the addition of 2-APB, the recording was continued for the additional 140 s. Changes in intracellular Ca^2+ were measured by taking the ratio of fluorescence emitted at 510 nm at the excitation wavelength of 340 nm and 380 nm. […] The data were processed using Origin 9.0 (OriginLab) software.

wild-type mouse TRPV3 = biological target: T2, wild-type mouse TRPV3 (Mus musculus, UniProt Q8K424); assay: as above; assay type: cell-based
T2 construct: expressed in transfected cells; host or cells: HEK 293 S GnTI- cells (baculovirus transduction)
T2 sequence (Q8K424 1-791): T1 sequence (Q8K424 1-791 F666A) with A666F
Description: as §1

**Q.** CCCCOc1ccc(C(=O)CCN2CCCCC2)cc1 [dyclonine, 1-(4-butoxyphenyl)-3-piperidin-1-ylpropan-1-one] was tested. Which IC50 (F666A mutant TRPV3; HEK 293 GnTI- cells, 200 µM 2-APB after pre-incubation with inhibitor) did it give?
**A.** 673 ± 37 µM

**Q.** And the “nHill of inhibition curve, F666A” value (F666A mutant TRPV3; logistic fit)?
**A.** 2.07 ± 0.08

**Q.** And the “nHill of inhibition curve” value (wild-type mouse TRPV3; logistic fit, 200 µM 2-APB, n = 7)?
**A.** 1.61 ± 0.27

**Q.** And the IC50 (wild-type mouse TRPV3; read-out: IC50, inhibition of TRPV3-mediated Ca2+ uptake)?
**A.** 29.8 ± 5.3 µM
